Legend:
clinical = details: human
[1] = Absolute bioavailability in human; format: ADME, organism-based; details: in vivo
[2] = Dissociation constant, pKa of the compound; format: physicochemical
[3] = caco-2
[4] = human
[5] = Octanol-water partition coefficient, log P of the compound; format: physicochemical; details: read-out: logP

Row | SMILES | Papp (clinical) [×10⁻⁶ cm/s] | bioavailability [1] [%] | pKa [2] | Daq [3] [×10⁻⁶ cm2/s] | permeability [4] [×10⁻⁴ cm/s] | logP [5]
1 | CNC(=C[N+](=O)[O-])NCCSCc1ccc(CN(C)C)o1 [RANITIDINE] | 27.3 | 50 | 2.11 | 7.3 | – | –
2 | COC1=CC(=O)C[C@@H](C)[C@]12Oc1c(Cl)c(OC)cc(OC)c1C2=O [GRISEOFULVIN] | 114 | 95 | – | 6.9 | – | –
3 | Cc1cc(=O)n(-c2ccccc2)n1C [ANTIPYRINE] | – | 99 | 1.3 | 9.2 | 2.07 | –
4 | COc1ccc(CCN(C)CCCC(C#N)(c2ccc(OC)c(OC)c2)C(C)C)cc1OC (stereo not drawn) | – | 84 | – | – | – | –
5 | CN1C(C(=O)Nc2ccccn2)=C(O)c2ccccc2S1(=O)=O [PIROXICAM] | 665 | 100 | – | 7.1 | – | –
6 | NS(=O)(=O)c1cc2c(cc1Cl)NCNS2(=O)=O [HYDROCHLOROTHIAZIDE] | 4 | 55 | – | 7.5 | – | -0.03
7 | NCCCC[C@H](N[C@@H](CCc1ccccc1)C(=O)O)C(=O)N1CCC[C@H]1C(=O)O [LISINOPRIL ANHYDROUS] | – | 27 | 3.16 | – | – | -2.86
8 | Cc1cc(NC(=O)C2=C(O)c3ccccc3S(=O)(=O)N2C)no1 [ISOXICAM] | – | 100 | – | – | – | –
9 | CC(C)(C)NCC(O)c1cc(O)cc(O)c1 (stereo not drawn) [TERBUTALINE] | 30 | – | 8.67 | 8.5 | – | -0.08
10 | N=C(N)NCCCNC(=O)[C@@H]1CCCCN1C(=O)[C@@H](CC1CCCCC1)NCC(=O)O [INOGATRAN] | – | 5 | 1.6 | – | – | -0.6
11 | COCCc1ccc(OCC(O)CNC(C)C)cc1 (stereo not drawn) [METOPROLOL] | 90 | – | – | 7.9 | – | –
12 | CCCc1cc(=O)[nH]c(=S)[nH]1 [PROPYLTHIOURACIL] | – | 85 | – | – | – | –
13 | CC(C)C[C@H](N)C(=O)O [LEUCINE] | 620 | 100 | 2.38 | 10.9 | – | –
14 | N[C@@H](Cc1ccc(O)c(O)c1)C(=O)O [LEVODOPA] | 340 | 100 | 2.21 | 9 | – | -3
15 | C[S+]([O-])CCCCN=C=S (stereo not drawn) [SULFORAPHANE] | – | 74 | – | 9.5 | 18.7 | 1.68
16 | C[C@H]1O[C@@H](O[C@H]2[C@@H](O)C[C@H](O[C@H]3[C@@H](O)C[C@H](O[C@H]4CC[C@@]5(C)[C@H](CC[C@@H]6[C@@H]5C[C@@H](O)[C@]5(C)[C@@H](C7=CC(=O)OC7)CC[C@]65O)C4)O[C@@H]3C)O[C@@H]2C)C[C@H](O)[C@@H]1O [DIGOXIN] | – | 70 | – | – | – | –
17 | O=C1OC2(c3ccc(O)cc3Oc3cc(O)ccc32)c2ccccc21 [FLUORESCEIN] | – | 99 | – | – | – | –

Further lines, with some results ahead:

Row | Papp (clinical) [×10⁻⁶ cm/s] | bioavailability [1] [%] | pKa [2] | Daq [3] [×10⁻⁶ cm2/s] | SMILES | permeability [4] [×10⁻⁴ cm/s] | logP [5]
18 | – | 99 | – | – | COc1ccc2c(c1)c(CC(=O)O)c(C)n2C(=O)c1ccc(Cl)cc1 [INDOMETHACIN] | – | –
19 | – | 54 | – | – | O=C(O)Cc1ccccc1Nc1c(Cl)cccc1Cl [DICLOFENAC] | – | –
20 | 10 | 8 | 3.2 | 7 | C[C@H](N[C@@H](CCc1ccccc1)C(=O)O)C(=O)N1CCC[C@H]1C(=O)O [ENALAPRILAT ANHYDROUS] | – | –
21 | 336 | 100 | 2.2 | 9.8 | N[C@@H](Cc1ccccc1)C(=O)O [PHENYLALANINE] | – | –
22 | 30 | 45 | – | 6.8 | CC1(C)S[C@@H]2[C@H](NC(=O)[C@H](N)c3ccc(O)cc3)C(=O)N2[C@H]1C(=O)O [AMOXICILLIN] | – | –
23 | – | 85 | – | – | CC(C)Cc1ccc(C(C)C(=O)O)cc1 (stereo not drawn) [IBUPROFEN] | – | –
24 | 440 | 70 | – | 7.9 | CNCCCN1c2ccccc2CCc2ccccc21 [DESIPRAMINE] | – | –
25 | – | – | – | 8.4 | COc1ccc2cc([C@H](C)C(=O)O)ccc2c1 [NAPROXEN] | – | –
26 | – | – | – | 7.9 | CC(C)NCC(O)COc1ccc(CC(N)=O)cc1 (stereo not drawn) [ATENOLOL] | – | –
27 | – | 30 | – | – | CC(C)(C)NCC(O)COc1cccc2c1CC(O)C(O)C2 (stereo not drawn) [NADOLOL] | – | –

Reference: ChEMBL document CHEMBL1158536, “How well can the Caco-2/Madin-Darby canine kidney models predict effective human jejunal permeability?” (J Med Chem, 2010)
